Measurements taken from paper PMC6977966, “Inhibition of synucleinopathic seeding by rationally designed inhibitors” (eLife, 2020).
Read-outs that look alike come from different tables or passages of the source. Where a SMILES comes first, the peptide text is derived from it. Where no end group is shown, it is not given here. [ ]: non-standard residue; d: D form. Sar = CNCC(=O)O

Key:
[1] = ref Rodriguez et al., 2015; cited from earlier work
Text: Based on the atomic structure of NACore [68-GAVVTGVTAVA-78] as a template, we applied computational and structure-based approaches to design peptidic inhibitors. […] The inhibitors were designed using Rosetta-based computational modeling to bind to the tip of the steric-zipper protofilament, thereby capping the fibrils (Figure 1A). We identified four candidates; S37, S61, S62 and S71 that are computed to bind favo ...

α-syn fibrils = molecular target: T1, α-syn fibrils (Homo sapiens, UniProt P37840); assay: SPR binding to immobilized sonicated, filtered α-syn fibrils; conditions: steady-state, 1:1 binding model, read-out: equilibrium dissociation constant Kd, α-syn fibril
T1 construct: made in house; host or cells: Escherichia coli BL21 (DE3) gold
Text: Computational modeling predicted that our candidate peptidic inhibitors bind α-syn fibril seeds and prevent their growth and propagation. To obtain direct evidence of binding of our inhibitors to α-syn fibril seeds, we used surface plasmon resonance (SPR) (Figure 2A). For the SPR experiments, α-syn fibrils were immobilized on a CM5 sensor chip using standard amine coupling chemistry. For immobilization, mature α-syn fibrils were sonicated to form short fragments (Figure 2—figure supplement 1A) and then filtered through a 0.22-micron filter to remove large aggregates, retaining short fibrils (Figure 2—figure supplement 1A). We confirmed that short fibrils generated by sonication retain the ability to seed monomeric α-syn using an in vitro-seeded-aggregation assay. […] We then immobilized the sonicated and filtered α-syn fibrils on a CM5 SPR chip and measured affinities of our peptide inhibitors to the fibrils. […] The equilibrium dissociation constant (Kd) was calculated by steady-state analysis, fitting the data with 1:1 binding model (Figure 2B). […]
Figure 2. […] (B) The equilibrium dissociation constant (Kd) was calculated by fitting the plot of steady-state inhibitor binding levels (SPR signal at steady-state) against inhibitor concentration with 1:1 binding model. […]

monomeric α-syn = molecular target: T2, monomeric α-syn (Homo sapiens, UniProt P37840); assay: SPR binding to immobilized α-syn monomers; conditions: Biacore T200, CM5 chip amine coupling, inhibitor 0.5–500 μM, 30 μl/min, PBS pH 7.4, 25°C, steady-state, 1:1 binding model, mean ± SD, performed thrice, read-out: dissociation constant Kd, α-syn monomer
T2 construct: prevent aggregation of full-length α-syn in vitro; made in house; host or cells: Escherichia coli BL21 (DE3) gold

| Compound | aggregation rate relative to NACore [1] | Kd (α-syn fibrils) [µM] | Kd (monomeric α-syn) [µM] | Kd (α-syn fibrils; Biacore T200, CM5 chip amine coupling, inhibitor 0.5–500 μM, 30 μl/min, PBS pH 7.4, 25°C, mean ± SD, performed thrice) [µM] |
| --- | --- | --- | --- | --- |
| AVVTGVTAV [69-AVVTGVTAV-77, smaller 9-residue segment within NACore] | aggregates slower than NACore |  |  |  |
| GAVVWGVTAVGRKKRRQRRRPQ [S61] |  | 9.28 | 62.8 ± 11.7 |  |
| CC(C)[C@H](NC(=O)CN(C)C(=O)[C@@H](NC(=O)[C@@H](NC(=O)[C@@H](NC(=O)[C@H](C)NC(=O)[C@H](CCCNC(=N)N)NC(=O)[C@H](CCCNC(=N)N)NC(=O)[C@H](CCCNC(=N)N)NC(=O)[C@H](CCC(N)=O)NC(=O)[C@H](CCCNC(=N)N)NC(=O)[C@H](CCCNC(=N)N)NC(=O)[C@H](CCCCN)NC(=O)[C@H](CCCCN)NC(=O)[C@H](CCCNC(=N)N)NC(=O)CNC(=O)[C@@H](N)Cc1ccc(O)cc1)C(C)C)C(C)C)[C@@H](C)O)C(=O)N[C@H](C(=O)N[C@@H](C)C(=O)N[C@H](C(=O)N[C@@H](C)C(=O)N[C@@H](CCC(=O)O)C(=O)O)C(C)C)[C@@H](C)O [S71] (H-YGRKKRRQRRRAVVT[Sar]VTAVAE-OH) |  |  | 116 ± 11.7 | 10.9 ± 0.11 |
